In patent publication US20250186450A1, “COMBINATION THERAPY COMPRISING DGK INHIBITORS and PD-1/PD-L1 INHIBITORS” (Incyte Corporation, priority 2023, published 2025):
Entries after “also recorded” stand apart in the source; their conditions may differ.

Tests used:
[1] = tested on: MC38 syngeneic tumor model; test: MC38 syngeneic tumor model, DGK inhibitor plus anti-PD-1 (RMP1-14); format: in vivo, C57Bl/6 mice
Method: The in vivo effect of combining Compound 1 plus anti-PD-1 (RMP1-14, Bio X Cell) was assessed in the MC38 (CRL-1642, ATCC, Manassas, VA) syngeneic tumor model (see FIG. 3) in 6 to 8 weeks old C57Bl/6 mice (Jackson laboratories). Compound 1 was suspended in 5% N,N-dimethylacetamide (DMAC)+50 mM Citrate buffer in 0.5% methyl cellulose for oral administration and RMP1-14 was suspended in saline for intraperitoneal administration. Briefly, the left flank of the mice was shaved the day prior to subcutaneous inoculation with 2×10^6 MC38 cells suspended in PBS. On day 7, tumor dimensions were measured by Vernier calipers, and volume estimated by the formula Volume=[L (long dimension)×W^2 (short dimension)]/2. Mice were randomized into 6 groups of 10 mice of approximate mean volume (˜160 mm^3). Tumors were measured 3 times per week for the duration of the study. Starting day 7, mice were dosed with (i) vehicle; (ii) 250 μg/mouse of RMP1-14; (iii) 10 mg/kg of Compound 1; (iv) 1 mg/kg of Compound 1; (v) 10 mg/kg of Compound 1 and 250 μg/mouse of RMP1-14; or (vi) 1 mg/kg of Compound 1 and 250 μg/mouse of RMP1-14. Compound 1 was administered orally once daily (QD) for 12 days, while RMP1-14 was dosed every 5 days (for a total of 3 doses).
The in vivo effect of combining Compound 2 plus anti-PD-1 (RMP1-14, Bio X Cell) was assessed in the MC38 (CRL-1642, ATCC, Manassas, VA) syngeneic tumor model in 6 to 8 weeks old C57Bl/6 mice (Jackson laboratories). Compound 2 was suspended in 5% N,N-dimethylacetamide (DMAC)+50 mM Citrate buffer in 0.5% methyl cellulose for oral administration and RMP1-14 was suspended in saline for intraperitoneal administration. Briefly, the left flank of the mice was shaved the day prior to subcutaneous inoculation with 2×10^6 MC38 cells suspended in PBS. On day 7, tumor dimensions were measured by Vernier calipers, and volume estimated by the formula Volume=[L (long dimension)×W^2 (short dimension)]/2. Mice were randomized into 6 groups of 10 mice of approximate mean volume (˜130 mm^3). Tumors were measured 3 times per week for the duration of the study. Starting day 7, mice were dosed with (i) vehicle; (ii) 250 μg/mouse of RMP1-14 (Anti-PD-1); (iii) 0.5 mg/kg of Compound 2 QD; (iv) 0.5 mg/kg of Compound 2 […] and 250 μg/mouse of RMP1-14; (v) 0.5 mg/kg of Compound 2 Q2D; (vi) 0.5 mg/kg of Compound 2 […] and 250 μg/mouse of RMP1-14; (vii) 1.5 mg/kg of Compound 2 QD; (viii) 1.5 mg/kg of Compound 2 QD and 250 μg/mouse of RMP1-14 (ix) 1.5 mg/kg of Compound 2 Q2D; (x) 1.5 mg/kg of Compound 2 Q2D and 250 μg/mouse of RMP1-14; (xi) 1.5 mg/kg of Compound 2 Q3D; or (xii) 1.5 mg/kg of Compound 2 Q3D and 250 μg/mouse of RMP1-14.
The in vivo effect of combining 2-(4-((2S,5R)-4-(bis(4-fluorophenyl)methyl)-2,5-dimethylpiperazin-1-yl)-1H-[1,2,4]triazolo[3,4-b]purin-1-yl)-N,N-dimethylethane-1-amine (i.e., Compound 3) plus anti-PD-1 (RMP1-14, Bio X Cell) was assessed in the MC38 (CRL-1642, ATCC, Manassas, VA) syngeneic tumor model in 6 to 8 weeks old C57Bl/6 mice (Jackson laboratories). Compound 3 was suspended in 5% N,N-dimethylacetamide (DMAC)+50 mM Citrate buffer in 0.5% methyl cellulose for oral administration and RMP1-14 was suspended in saline for intraperitoneal administration. Briefly, the left flank of the mice was shaved the day prior to subcutaneous inoculation with 2×10^6 MC38 cells suspended in PBS. On day 7, tumor dimensions were measured by Vernier calipers, and volume estimated by the formula Volume=[L (long dimension)×W^2 (short dimension)]/2. Mice were randomized into 6 groups of 10 mice of approximate mean volume (˜200 mm^3). Tumors were measured 3 times per week for the duration of the study. Starting day 7, mice were dosed with (i) vehicle; (ii) 250 μg/mouse of RMP1-14 (Anti-PD-1); (iii) 10 mg/kg of Compound 3 QD; (iv) 10 mg/kg of Compound 3 QD and 250 μg/mouse of RMP1-14; (v) 30 mg/kg of Compound 3 QD; or (vi) 30 mg/kg of Compound 3 QD and 250 μg/mouse of RMP1-14.

DGKα = DGKα (Homo sapiens (Human), UniProt P23743); test: In vitro DGKα inhibition assay (ADP-Glo); format: biochemical; conditions: 0.1 nM DGKα, 50 μM ATP, 20 μM DLG
Sequence of DGKα (P23743 whole entry): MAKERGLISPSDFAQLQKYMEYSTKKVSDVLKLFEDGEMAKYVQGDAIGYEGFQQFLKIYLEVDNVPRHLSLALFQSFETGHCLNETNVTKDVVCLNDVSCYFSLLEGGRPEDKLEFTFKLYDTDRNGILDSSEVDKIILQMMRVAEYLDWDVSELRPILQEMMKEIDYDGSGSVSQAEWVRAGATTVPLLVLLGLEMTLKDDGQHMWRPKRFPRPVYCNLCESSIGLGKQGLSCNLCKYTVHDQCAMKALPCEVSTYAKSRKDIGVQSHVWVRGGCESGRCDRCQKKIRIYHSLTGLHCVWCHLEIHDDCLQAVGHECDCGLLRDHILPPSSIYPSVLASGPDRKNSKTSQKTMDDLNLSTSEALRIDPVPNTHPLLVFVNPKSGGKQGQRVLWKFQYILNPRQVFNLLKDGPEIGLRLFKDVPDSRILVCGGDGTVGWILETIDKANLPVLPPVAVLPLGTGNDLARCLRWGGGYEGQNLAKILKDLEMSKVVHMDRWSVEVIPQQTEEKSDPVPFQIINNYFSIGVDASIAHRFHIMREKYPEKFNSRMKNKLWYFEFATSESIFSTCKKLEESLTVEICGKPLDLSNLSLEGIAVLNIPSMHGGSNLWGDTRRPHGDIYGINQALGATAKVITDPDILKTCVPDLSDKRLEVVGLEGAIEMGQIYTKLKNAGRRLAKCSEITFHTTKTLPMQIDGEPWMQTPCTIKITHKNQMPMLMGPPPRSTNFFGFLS
Method: The DGKα and DGKζ biochemical reactions were performed using His-tagged human recombinant enzymes (Signal Chem, DGKα, #D21-10BH; DGKζ, #D30-10H)) and DLG (Dilauroyl-sn-glycerol) lipid substrate (Signal Chem, #D430-59). ADP-Glo assay was performed using ADP-Glo™ kinase Assay kit (Promega, #V9104). The reactions were carried out in assay buffer containing 40 mM Tris, pH 7.5, 0.1% CHAPS, 0.1% Prionex, 40 mM NaCl, 5 mM MgCl2, 1 mM CaCl2, and 1 mM DTT. DGKα reactions contained 0.1 nM DGKα, 50 μM ATP, and 20 μM DLG. And DGKζ reactions contained 0.4 nM DGKζ, 30 μM ATP, and 20 μM DLG.
For compound inhibition studies, 40 nL test compound in DMSO was added to wells of white polystyrene plates in 384-well (Greiner, #784075) or 1536-well format (Greiner, #782075). Compounds were added with top concentration of 2 mM with 11 point, 3-fold dilution series. Enzyme solution (contains 2×DGK enzyme concentration in 1× assay buffer) was added to the plate in 2 μL/well volume, followed by 2 μL/well of substrate solution (contains 2× concentration of ATP and DLG substrate in 1× assay buffer). Plates were then centrifuged for 1 min at 1200 RPM and sealed or lidded. For 4 μL reaction volume, test compounds were therefore diluted 100× to final top concentration of 20 μM. After 90 minute incubation, reactions were quenched by addition of 2 μL/well Promega ADP-Glo Reagent, followed by centrifugation and lidding. After 60 min incubation, 2 μL/well Promega Kinase Detection Reagent was added, plates centrifuged, and incubated for 30 min. Plates were then read using Luminescence method on BMG PHERAstar FSX plate reader. Percent inhibition was calculated and IC50s were determined using 4-parameter fit in Genedata Screener. Labcyte Echo acoustic dispenser was used for compound addition, and Formulatrix Tempest liquid handler was used for all reagent dispenses.

IC50 (DGKα) [nM]	Structure (SMILES)	TGI, combined with anti-PD-1 mAb, vs anti-PD-1 mAb control group ([1]; 1.5 mg/kg Compound 2 and 250 μg/mouse RMP1-14, FIG. 7)	TGI, combined with anti-PD-1 mAb, vs vehicle control group ([1]; 0.5 and 1.5 mg/kg Compound 2, independent of dose schedule, and 250 μg/mouse RMP1-14, FIG. 7)	TGI, combination groups vs respective single-arm Compound 2 control group ([1]; 0.5 or 1.5 mg/kg Compound 2 and 250 μg/mouse RMP1-14)	TGI vs vehicle and anti-PD-1 mAb control groups ([1]; Compound 2 alone, 0.5 or 1.5 mg/kg, FIG. 7)	combination effect on tumor growth delay (Bliss Independence analysis) ([1]; 10 mg/kg or 1 mg/kg Compound 1 QD for 12 days with 250 μg RMP1-14, vs respective controls, FIG. 3)
≤ 20	Cc1nc2c(N3C[C@@H](C)N(C(c4ccc(C(F)(F)F)cc4)C4CC(F)(F)C4)C[C@@H]3C)nc3nncn3c2n1C[C@@H]1CCCO1 (single isomer, unassigned) [Example 2]	significant TGI	statistically significant; also recorded: significant TGI	statistically significant	None of the single treatment arm groups dosed with Compound 2 0.5 or 1.5 mg/kg provided statistically significant TGI	–
≤ 20	C[C@@H]1CN(c2nc3nncn3c3c2nnn3C[C@H]2CCCO2)[C@@H](C)CN1C(c1ccc(F)cc1)c1ccc(F)cc1 [Example 1, 4-((2S,5R)-4-(Bis(4-fluorophenyl)methyl)-2,5-dimethylpiperazin-1-yl)-1-(((R)-tetrahydrofuran-2-yl)methyl)-1H-[1,2,3]triazolo[4,5-e][1,2,4]triazolo[4,3-a]pyrimidine]	–	–	–	–	additive effect in tumor growth delay
